For one assay, the system named is LPA 18:2 in human plasma. The assay can be described thus: Human whole blood (plasma) LPA assay. The format is biochemical. To be noted: 2 h at 37 C, LPA 18:2 by LC-MS/MS. How it is done:
Blood is collected from healthy volunteers who gave informed consent into sodium heparin tubes by venipuncture, then gently inverted several times to prevent clotting. Tubes are centrifuged at 3000 rpm for 15 min at 4° C. then plasma is stored at −80° C. Compounds are diluted in DMSO in concentration dependent manner then 0.5 μL are dispensed into 96-well plate placed in ice. Plasma is defrosted on ice then 49.5 μL of plasma are added into the well containing 0.5 μL of compound (1% DMSO final). Plates are covered with a lid in polypropylene and incubated at +37° C., 5% CO2, for 2 h under gentle shaking (except controls which are stored at −20° C.).
At the end of the incubation, controls are defrosted in ice and transferred in the incubated plates for LC-MS/MS analysis with a non GLP-validated method. For the analysis, plasma proteins from a 10 μL incubated plates are precipitated with an excess of methanol containing the internal standard, LPA 17:0. After centrifugation, the corresponding supernatant is injected on a C18 column. Analytes are eluted out of the column under isocratic conditions. An API5500 QTRAP mass spectrometer (ABSciex™) is used for the detection of LPA 18:2. No calibration curve is prepared for LPA 18:2, however relative quantities are evaluated based on the peak area.

The next assay has as its system LPA 18:2 in rat plasma. The assay can be described thus: Rat whole blood (plasma) LPA assay. The format is biochemical. As to conditions: 2 h at 37 C, LPA 18:2 by LC-MS/MS. Summed up: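 Heparinised rat plasma spiked with compound (1% DMSO final), incubated 2 h at 37 °C, 5% CO2 with shaking; controls kept at −20 °C. After methanol precipitation with LPA 17:0 internal standard, LPA 18:2 measured by LC-MS/MS (C18, isocratic), relative quantities from peak area without calibration.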

Assay [1] has as its target T1, hENPP2 (UniProtKB/SwissProt Q13822) (Homo sapiens (Human), UniProt Q13822). The assay can be described thus: hENPP2 biochemical assay, LPC as substrate. To be noted: LPC (palmitoyl 16:0) as substrate. Summed up: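 Human ENPP2 in 50 mM Tris-HCl pH 8.5, 500 mM NaCl, 5 mM KCl, 10 mM CaCl2, 0.1% fatty-acid-free BSA, reacted 30 min at 37 °C with LPC 16:0 (150 µM solution added 1:1). Released choline measured via choline oxidase/peroxidase/TOOS/4-aminoantipyrine quinoneimine dye at 555 nm; IC50 reported.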

Assay [2] has as its target T1, hENPP2. The assay can be described thus: fluorescent hENPP2 biochemical assay, FS-3 as substrate. To be noted: read-out: FS3-IC50. Summed up: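 IC50 values come from fluorescence gained as FS-3 is hydrolysed (ex 485, em 520 nm). The reaction, started by adding 0.75 μM FS-3 solution, runs 30 min at 30° C after a 30 min room-temperature preincubation of compound with enzyme. Buffer: Tris-HCl pH 8.0 with NaCl, KCl, MgCl2, CaCl2 and 0.1% BSA.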

A value given as a limit tells only on which side of the number the result lay.

A word on the IC50: it is the concentration needed to halve the response being measured.

Turning to `CCc1nc2c(F)cc(N3CCN(CC(=O)NC)CC3)cn2c1N(C)c1nc(-c2ccc(F)cc2)c(C#N)s1` [Compound 13, 2-(4-(3-((5-cyano-4-(4-fluorophenyl)thiazol-2-yl)(methyl)amino)-2-ethyl-8-fluoroimidazo[1,2-a]pyridin-6-yl)piperazin-1-yl)-N-methylacetamide], the IC50 was in the range of 100 to 500 nM with LPA 18:2 in human plasma and 0.01 to 100 nM with LPA 18:2 in rat plasma.
Regarding `CCc1nc2ccc(C3CCN(S(=O)(=O)CCN4CCOCC4)CC3)cn2c1N(C)c1nc(-c2ccc(F)cc2)cs1` [Compound 91, N-(2-ethyl-6-(1-(2-morpholinoethylsulfonyl)piperidin-4 yl)imidazo[1,2-a]pyridin-3-yl)-4-(4-fluorophenyl)-N-methylthiazol-2-amine], the half-inhibitory concentration (IC50) on hENPP2 [1] is 500 to 1000 nM; on hENPP2 [2] it was 0.01 to 100 nM; in the assay with LPA 18:2 in rat plasma, above 1000 nM.
As for `CCc1nc2ccc(C3CCN(CC(=O)N4CC[C@H](O)C4)CC3)cn2c1N(C)c1nc(-c2ccc(F)cc2)c(C#N)s1` [Compound 143, (S)-2-((2-ethyl-6-(1-(2-(3-hydroxypyrrolidin-1-yl)-2-oxoethyl)piperidin-4-yl)imidazo[1,2-a]pyridin-3-yl)(methyl)amino)-4-(4-fluorophenyl)thiazole-5-carbonitrile], the IC50 against hENPP2 [1], on hENPP2 [2] and in the assay with LPA 18:2 in rat plasma was 0.01 to 100 nM in each case.
Consider `CCc1nc2ccc(N3CCN(CC(=O)N4CC(O)C4)CC3)cn2c1N(C)c1nc(-c2ccc(F)cc2)c(C#N)s1` [Compound 138, 2-((2-ethyl-6-(4-(2-(3-hydroxyazetidin-1-yl)-2-oxoethyl)piperazin-1-yl)imidazo[1,2-a]pyridin-3-yl)(methyl)amino)-4-(4-fluorophenyl)thiazole-5-carbonitrile], for which the IC50 on hENPP2 [1], on hENPP2 [2] and with LPA 18:2 in rat plasma was 0.01 to 100 nM in each case.
With `CCc1nc2ccc(N3CCN(S(=O)(=O)CCCN(C)C)CC3)cn2c1N(C)c1nc(-c2ccc(F)cc2)cs1` [Compound 56, N-(6-(4-(3-(dimethylamino)propyl-sulfonyl)piperazin-1-yl)-2-ethylimidazo[1,2-a]pyridin-3-yl)-4-(4-fluorophenyl)-N-methylthiazol-2-amine], the IC50 on hENPP2 [1] was 500 to 1000 nM; on hENPP2 [2], 0.01 to 100 nM; with LPA 18:2 in rat plasma it was above 1000 nM.
`CCc1nc2ccc(C3CCN(CC(=O)N4CC(O)C4)CC3)cn2c1N(C)c1nc(-c2ccc(F)cc2)c(C(=O)C(F)(F)F)s1` [Compound 159, 1-(2-((2-ethyl-6-(1-(2-(3-hydroxyazetidin-1-yl)-2-oxoethyl)piperidin-4-yl)imidazo[1,2-a]pyridin-3-yl)(methyl)amino)-4-(4-fluorophenyl)thiazol-5-yl)-2,2,2-trifluoroethanone]: the IC50 against hENPP2 [1] is 0.01 to 100 nM; at hENPP2 [2], 0.01 to 100 nM; in the assay with LPA 18:2 in rat plasma, 100 to 500 nM.
Regarding `CCc1nc2ccc(N3CCOC3=O)cn2c1N(C)c1nc(-c2ccc(Cl)cc2)cs1` [Compound 206, 3-(3-((4-(4-chlorophenyl)thiazol-2-yl)(methyl)amino)-2-ethylimidazo[1,2-a]pyridin-6-yl)oxazolidin-2-one], the IC50 against hENPP2 [1] was above 1000 nM; on hENPP2 [2], 0.01 to 100 nM; with LPA 18:2 in rat plasma it was above 1000 nM.
As for `CCc1nc2ccc(C3CCN(S(C)(=O)=O)CC3)cn2c1N(C)c1nc(-c2ccc(F)cc2)c(C#N)s1` [Compound 136, 2-((2-ethyl-6-(1-(methylsulfonyl)piperidin-4-yl)imidazo [1,2-a]pyridin-3-yl)(methyl)amino)-4-(4-fluorophenyl) thiazole-5-carbonitrile], the IC50 lay in the range of 100 to 500 nM at hENPP2 [1], 0.01 to 100 nM at hENPP2 [2] and 0.01 to 100 nM in the assay with LPA 18:2 in rat plasma.
In the case of `CCc1nc2ccc(C3CCN(CC(=O)N(C)C)CC3)cn2c1N(C)c1nc(-c2ccc(F)cc2)c(C#N)s1` [Compound 145, 2-(4-(3-((5-cyano-4-(4-fluorophenyl)thiazol-2-yl)(methyl)amino)-2-ethylimidazo[1,2-a]pyridin-6-yl)piperidin-1-yl)-N,N-dimethylacetamide], the IC50 against hENPP2 [1], on hENPP2 [2] and in the assay with LPA 18:2 in rat plasma was 0.01 to 100 nM throughout.
In the case of `CCc1nc2ccc(C3CCN(CC(=O)N4CC[C@@H](O)C4)CC3)cn2c1N(C)c1nc(-c2ccc(F)cc2)cs1` [Compound 111, (R)-2-(4-(2-ethyl-3-((4-(4-fluorophenyl)thiazol-2-yl)(methyl)amino)imidazo[1,2-a]pyridin-6-yl)piperidin-1-yl)-1-(3-hydroxypyrrolidin-1-yl)ethanone], the IC50 at hENPP2 [1] fell in the range of 100 to 500 nM; on hENPP2 [2] it was 0.01 to 100 nM; with LPA 18:2 in rat plasma, 500 to 1000 nM.
For `CCc1nc2ccc(C3=CCN(S(=O)(=O)CCCO)CC3)cn2c1N(C)c1nc(-c2ccc(F)cc2)cs1` [Compound 75, 3-(4-(2-ethyl-3-((4-(4-fluorophenyl)thiazol-2-yl)(methyl)amino)imidazo[1,2-a]pyridin-6-yl)-5,6-dihydropyridin-1(2H)-ylsulfonyl)propan-1-ol], in that order: 500 to 1000 nM, 0.01 to 100 nM and above 1000 nM.
In the case of `CCc1nc2ccc(N3CCN(Cc4ncco4)CC3)cn2c1N(C)c1nc(-c2ccc(F)cc2)cs1` [Compound 40], the IC50 on hENPP2 [1] is above 1000 nM; on hENPP2 [2], 0.01 to 100 nM; in the assay on LPA 18:2 in rat plasma, 500 to 1000 nM.
As to `CCc1nc2ccc(N3CCN(CC(=O)N4CCC4)CC3)cn2c1N(C)c1nc(-c2ccc(F)cc2C#N)cs1` [Compound 167, 2-(2-((6-(4-(2-(azetidin-1-yl)-2-oxoethyl)piperazin-1-yl)-2-ethylimidazo[1,2-a]pyridin-3-yl)(methyl)amino)thiazol-4-yl)-5-fluorobenzonitrile], the IC50 lay in the range of 0.01 to 100 nM against hENPP2 [1], 0.01 to 100 nM at hENPP2 [2] and 100 to 500 nM with LPA 18:2 in rat plasma.
In the case of `CCc1nc2ccc(C3CCN(CC(=O)N4CCCC4)CC3)cn2c1N(C)c1nc(-c2ccc(F)cc2)cs1` [Compound 115, 2-(4-(2-ethyl-3-((4-(4-fluorophenyl)thiazol-2-yl)(methyl)amino)imidazo[1,2-a]pyridin-6-yl)piperidin-1-yl)-1-(pyrrolidin-1-yl)ethanone], the IC50 on hENPP2 [1], on hENPP2 [2] and with LPA 18:2 in rat plasma was 0.01 to 100 nM throughout.
As for `CCc1nc2ccc(N3CCN(CCO)CC3)cn2c1N(C)c1nc(-c2ccc(Cl)cc2)cs1` [Compound 212, 2-(4-(3-((4-(4-chlorophenyl)thiazol-2-yl)(methyl)amino)-2-ethylimidazo[1,2-a]pyridin-6-yl)piperazin-1-yl)ethanol], the IC50 was above 1000 nM at hENPP2 [1], 0.01 to 100 nM at hENPP2 [2] and above 1000 nM in the assay with LPA 18:2 in rat plasma.
With `CCc1nc2ccc(N3CCN(CC(=O)N4CC(O)C4)CC3)cn2c1N(C)c1nc(-c2ccc(F)cc2C#N)c(C)s1` [Compound 162, 2-(2-((2-ethyl-6-(4-(2-(3-hydroxyazetidin-1-yl)-2-oxoethyl)piperazin-1-yl)imidazo[1,2-a]pyridin-3-yl)(methyl)amino)-5-methylthiazol-4-yl)-5-fluorobenzonitrile], the IC50 fell in the range of 100 to 500 nM against hENPP2 [1], 0.01 to 100 nM at hENPP2 [2] and 100 to 500 nM in the assay with LPA 18:2 in rat plasma.
Consider `CCc1nc2c(C)cc(N3CCN(CC(=O)N4CC[C@H](O)C4)CC3)cn2c1N(C)c1nc(-c2ccc(F)cc2)c(C#N)s1` [Compound 5, (S)-2-((2-ethyl-6-(4-(2-(3-hydroxypyrrolidin-1-yl)-2-oxoethyl)piperazin-1-yl)-8-methylimidazo[1,2-a]pyridin-3-yl)(methyl)amino)-4-(4-fluorophenyl)thiazole-5-carbonitrile], for which the results for the IC50 against hENPP2 [1], at hENPP2 [2] and with LPA 18:2 in rat plasma were 100 to 500 nM, 0.01 to 100 nM and 500 to 1000 nM, respectively.
For `CCc1nc2ccc(C3CCN(S(C)(=O)=O)CC3)cn2c1N(C)c1nc(-c2ccc(F)cc2)c(CO)s1` [Compound 147, (2-((2-ethyl-6-(1-(methylsulfonyl)piperidin-4-yl)imidazo[1,2-a]pyridin-3-yl)(methyl)amino)-4-(4-fluorophenyl)thiazol-5-yl)methanol], the values for the 50% inhibitory concentration (IC50) against hENPP2 [1], on hENPP2 [2] and with LPA 18:2 in rat plasma were 100 to 500 nM, 0.01 to 100 nM and 100 to 500 nM, respectively.
On to `CCc1nc2ccc(N3CCN(C(=O)CCCN(C)C)CC3)cn2c1N(C)c1nc(-c2ccc(F)cc2)cs1` [Compound 53, 4-(dimethylamino)-1-(4-(2-ethyl-3-((4-(4-fluorophenyl)thiazol-2-yl)(methyl)amino)imidazo[1,2-a]pyridin-6-yl)piperazin-1-yl)butan-1-one], for which the IC50 against hENPP2 [1] is above 1000 nM; at hENPP2 [2], 0.01 to 100 nM; in the assay on LPA 18:2 in rat plasma it was above 1000 nM.

Values taken from patent US9670204B2, “Compounds and pharmaceutical compositions thereof for the treatment of inflammatory disorders” (Galapagos NV, priority 2013, dated 2017).
